Test results as given in EP1985629A1, “Pro-apoptotic molecules and therapeutic uses thereof” (UNIVERSITA DEGLI STUDI DI GENOVA, priority 2007, dated 2008).
Where a SMILES comes first, the peptide text is derived from it. [ ]: non-standard residue; d: D form. Aib = CC(C)(N)C(=O)O

Columns and labels:
Type in all cases: cell-based, human
[1] = tested on: peripheral blood lymphocytes (PBL); assay: Viability of normal peripheral blood lymphocytes; settings: for ratio of viable cells, treated versus untreated: two pulses at a 48 h interval, four days, mean ± SE
Experimental: The leukemic myelomonocytic cell line U937, the T cell leukaemia cell line Jurkat, the Burkitt lymphoma cell line Namalwa were grown in RPMI 1640 medium supplemented with 10% FBS, 1% sodium pyruvate, 1% non essential aminoacids, 1% penicillin/streptomycin. 2.5·10^4 cells were seeded on 48 wells plates (Corning Costar). The treatment was performed on triplicate wells. Drug concentration ranged from 1 µM up to 30 µM, four treatments every 24 h or two treatments every 48 h were performed. Human peripheral blood lymphocytes obtained from healthy volunteers by venipuncture, were isolated by lymphocyte separation medium (Ficoll) density gradient centrifugation. Mononuclear cells from the interphase were washed twice with PBS and resuspended in RPMI 1640 medium containing 10% FCS, glutamine and antibiotics. Phytohemagglutinin (PHA) was added at 1.5 µg/ml final concentration.
PI uptake tests were performed to assess cell viability. Cells suspended in culture medium were incubated for 5 min with 3 µg/ml PI and analysed by flow cytometry. […] At least 10,000 events were acquired on a logarithmic scale from each sample.
Bone marrow aspirates from patients with different leukaemia types were plated in tissue culture medium supplemented with 20% FCS, treated with 072RB twice every 48 h, and followed for 4 days. They were evaluated by flow cytometry DNA/SSC analysis, In Table 3 we show the percentage of [early + late apoptotic cells], according to leukaemia type and Int or 072RB dosage. To further study sensitivity to 072RB of normal cells, peripheral blood lymphocytes (PBL) isolated from four independent healthy donors were subjected to a four-days treatment with 10 µM 072RB. Treatment was performed, as usual, with two pulses at a 48 h interval. Lymphocytes were either un-stimulated or activated by PHA. […] Comparing treated and untreated normal peripheral lymphocytes, the ratio of viable cells between the two groups was 0.87 ± 0.05 (mean ± SE) for quiescent lymphocytes and 0.82 ± 0.057 for proliferating lymphocytes. This effect of 072RB on normal lymphocytes seems especially small if we consider the effects observed in leukaemia cell lines (see supplementary information), and also the effects observed in AML cells from ex vivo experiments: 0.55 ± 0.145 (mean ± SE). Table 3: Effect of 072RB on haematological malignancies (AML: acute myeloid leukaemia; ALL: acute lymphoid leukaemia; NBM: normal bone marrow): percentage of early/late apoptotic cells. Mean values from duplicate experiments are reported. The difference between the two individual values never exceeded 15% of the mean value. Ex vivo isolated cells were treated with either Int or 072RB at day 0, 2 (5, 10 µM), at day 0, 1, 2, 3 (1, 3 µM) and analysed after PI staining at day 4.

[2] = tested on: U937 and Jurkat cell lines; assay: Detection of mitochondrial permeability transition (DiOC6 fluorescence); settings: two cell lines, 4 days, 5 and 10 µM, two independent experiments
[3] = tested on: U937, Jurkat, Namalwa; assay: Cell growth, cell counts (trypan blue exclusion), three cell lines; settings: 10 µM, twice every 48 h, four days
Experimental: • Figure 1 Fluorescence Anisotropy Assay. Average anisotropy values: (open square) binding assay for increasing concentrations of Bcl-XL at a fixed concentration of fluorescent Bak-BH3 peptide. […] The error bars represent standard deviations observed from triplicate experiments. • Figure 2 072RB: cell growth effects. Panel A: Cell growth of U937 cell line treated for four days every 24 h at a 1 µM 072RB concentration and every 48 h at 3, 5, 10 and 30 µM 072RB concentrations. U937 controls at day 4, cell number: 350,000 ±50,000. Number of cells seeded at day 0: 20,000. Arrows indicate treatment time. […] All cells were counted in a Burker chamber and values are expressed as percentage of the untreated control cell number. Only living cells identified by trypan blue exclusion staining were counted. […] Flow cytometry measurements of DNA content (evaluated by propidium iodide (PI) fluorescence intensity) and physical cell side-scattering (evaluated by SSC) in U937 cells treated with Int and 072RB at 10 µM, twice each 48h. […] Three main cell populations can be observed in the bivariate PI/SSC plots, one with low SSC and normal DNA content (that accounts for "live" cells in culture), another with high SSC and normal DNA content (cells undergoing "early stage of apoptosis") and another one with lower PI fluorescence (cells at "late stage of apoptosis" and debris). […]

CC[C@H](C)[C@H](NC(=O)[C@H](CCCNC(=N)N)NC(=O)[C@H](CCCNC(=N)N)NC(=O)[C@H](CC(C)C)NC(=O)[C@H](CCC(=O)O)NC(=O)[C@H](CCC(N)=O)NC(=O)C(C)(C)NC(=O)[C@@H](NC(=O)[C@H](Cc1ccc(O)cc1)NC(=O)[C@@H](NC(=O)[C@H](CCC(=O)O)NC(=O)[C@@H]1CCCN1C(=O)[C@H](CCCNC(=N)N)NC(=O)[C@H](CCSC)NC(=O)[C@@H](N)CC(=O)O)[C@@H](C)CC)[C@@H](C)CC)C(=O)NCC(=O)N[C@@H](CC(=O)O)C(=O)N[C@@H](C)C(=O)N[C@@H](Cc1ccccc1)C(=O)N[C@@H](CC(N)=O)C(=O)NC(C)(C)C(=O)N[C@@H](Cc1ccc(O)cc1)C(=O)N[C@@H](CCCCN)C(=O)N[C@@H](CCCCN)C(=O)N[C@@H](Cc1c[nH]c2ccccc12)C(=O)N[C@@H](CCCCN)C(=O)N[C@@H](CCSC)C(=O)N[C@@H](CCCNC(=N)N)C(=O)N[C@@H](CCCNC(=N)N)C(=O)N[C@@H](CC(N)=O)C(=O)N1CCC[C@H]1C(=O)N[C@@H](Cc1ccccc1)C(=O)N[C@@H](Cc1c[nH]c2ccccc12)C(=O)N[C@H](C(=O)N[C@@H](CCCCN)C(=O)N[C@H](C(=O)N[C@@H](CCC(N)=O)C(=O)N[C@@H](CCCNC(=N)N)C(N)=O)[C@@H](C)CC)[C@@H](C)CC [Peptide 072RB] (H-DMRPEIYI[Aib]QELRRIGDAFN[Aib]YKKWKMRRNPFWIKIQR-NH2; N-terminus and C-terminus assumed)
effect on cell viability and cell proliferation ([1]; normal peripheral lymphocytes, data not reported): cytostatic rather than cytotoxic | ratio of viable cells, treated versus untreated ([1]; proliferating (PHA activated) lymphocytes, 10 µM): 0.82 ± 0.057 | toxicity ([1]; quiescent lymphocytes, 10 µM): quite negligible | ratio of viable cells, treated versus untreated ([1]; quiescent lymphocytes, 10 µM): 0.87 ± 0.05 | MPT (reduced DiOC6 fluorescence) [2]: clear MPT effects | cell growth compared to control cultures [3]: progressive decrease of cell growth
